This is an account of results in patent publication US20100068786A1, “METHODS AND COMPOSITIONS FOR REVERSING P-GLYCOPROTEIN MEDICATED DRUG RESISTANCE” (priority 2008, published 2010).

For one series, the system named is MCF-7/DX1. To be noted: MCF-7/DX1 vs MCF-7 cells; cited from earlier work.
A further series has as its system MCF-7/DX1 cells. Description: MTT cell viability assay, reversal of taxol resistance. In kind it is cell-based, human. Conditions: P-gp over-expressing MCF-7/DX1 cell line, FIG. 8. The procedure:
The inhibition of P-gp transport was evaluated with the prodrug dimers and monomer controls in the human carcinoma MCF7-DX1 cell line.
The P-gp-mediated multidrug resistance phenotype of cancer cells is characterized by the ability of cells to evade the cytotoxic effects of drugs that are substrates of P-gp and remain viable even at high extracellular drugs concentrations. One such compound is the cytostatic agent taxol, which is also a known P-gp substrate (Horwitz et al., 1993). Cells lines that over-express P-gp, such as the MCF-7/DX1 cell line, display a 3000-fold decrease in susceptibility to taxol (FIG. 8).

Series [1] concerns implanted human glioblastomas. Conditions: cited from earlier work.
The target in series [2] is T1, P-gp (Mus musculus, UniProt P21447).
T1 construct: A comparison of P-gp knock-out mice to their wild-type counterparts; host or cells: mouse, in vivo (blood-brain barrier)
T1 sequence (P21447 whole entry): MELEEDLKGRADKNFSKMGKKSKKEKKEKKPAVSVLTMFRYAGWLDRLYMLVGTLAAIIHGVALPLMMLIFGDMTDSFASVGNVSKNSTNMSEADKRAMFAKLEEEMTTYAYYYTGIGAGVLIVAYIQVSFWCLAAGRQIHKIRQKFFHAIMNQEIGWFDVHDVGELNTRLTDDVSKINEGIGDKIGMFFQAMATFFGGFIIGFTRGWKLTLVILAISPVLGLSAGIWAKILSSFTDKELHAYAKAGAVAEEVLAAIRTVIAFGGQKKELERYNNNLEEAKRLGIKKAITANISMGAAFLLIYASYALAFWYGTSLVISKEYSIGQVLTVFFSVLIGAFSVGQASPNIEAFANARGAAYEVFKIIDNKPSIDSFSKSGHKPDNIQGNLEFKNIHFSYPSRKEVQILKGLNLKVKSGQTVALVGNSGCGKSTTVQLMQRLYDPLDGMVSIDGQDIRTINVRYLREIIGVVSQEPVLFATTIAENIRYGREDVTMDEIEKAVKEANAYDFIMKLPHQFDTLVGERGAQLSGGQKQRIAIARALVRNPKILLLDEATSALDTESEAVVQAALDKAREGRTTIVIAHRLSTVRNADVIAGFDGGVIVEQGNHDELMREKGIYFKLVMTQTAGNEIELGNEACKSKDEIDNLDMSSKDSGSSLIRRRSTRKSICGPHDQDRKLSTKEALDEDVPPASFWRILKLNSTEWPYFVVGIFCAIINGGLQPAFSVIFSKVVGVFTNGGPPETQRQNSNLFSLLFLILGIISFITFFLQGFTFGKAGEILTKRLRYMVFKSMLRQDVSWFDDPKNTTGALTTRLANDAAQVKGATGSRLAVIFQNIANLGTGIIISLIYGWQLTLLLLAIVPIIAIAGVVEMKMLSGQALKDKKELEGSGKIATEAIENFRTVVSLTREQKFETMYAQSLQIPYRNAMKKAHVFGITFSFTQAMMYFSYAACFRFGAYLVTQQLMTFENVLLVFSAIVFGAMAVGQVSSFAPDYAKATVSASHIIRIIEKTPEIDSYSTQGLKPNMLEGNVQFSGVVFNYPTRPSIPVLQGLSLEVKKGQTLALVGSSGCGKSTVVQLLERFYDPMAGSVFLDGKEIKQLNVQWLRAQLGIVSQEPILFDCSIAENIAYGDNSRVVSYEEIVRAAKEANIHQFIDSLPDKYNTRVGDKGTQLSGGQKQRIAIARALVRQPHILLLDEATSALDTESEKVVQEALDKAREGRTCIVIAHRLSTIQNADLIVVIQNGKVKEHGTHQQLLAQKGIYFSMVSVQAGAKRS
Conditions: P-gp knock-out mice vs wild-type; cited from earlier work.

Series [3] concerns the target T1, P-gp. To be noted: co-administration in mice of P-gp inhibitor LY335979 and nelfinavir; cited from earlier work.

Turning to `COc1cccc2c1C(=O)c1c(O)c3c(c(O)c1C2=O)C[C@@](O)(C(=O)CO)C[C@@H]3O[C@H]1C[C@H](N)[C@H](O)[C@H](C)O1` [doxorubicin], the resistance to doxorubicin in the series with MCF-7/DX1 is on record as 200 fold.

For `CC(=O)O[C@H]1C(=O)[C@@]2(C)[C@H]([C@H](OC(=O)c3ccccc3)[C@]3(O)C[C@H](OC(=O)[C@H](O)[C@@H](NC(=O)c4ccccc4)c4ccccc4)C(C)=C1C3(C)C)[C@]1(OC(C)=O)CO[C@@H]1C[C@@H]2O` [taxol, paclitaxel], the “decrease in susceptibility to taxol” value in the series with MCF-7/DX1 cells is listed as 3000 fold. In series [1] (co-administration of paclitaxel with valspodar (PSC833) in mice), the “reduction of growth of implanted human glioblastomas” value is given as 90%. Besides, in series [1] (treatment with either drug alone, mice), the “effect on tumor size” value was “no effect”.

For `CC(C)(C)NC(=O)[C@@H]1C[C@@H]2CCCC[C@@H]2CN1C[C@@H](O)[C@H](Cc1ccccc1)NC(=O)[C@H](CC(N)=O)NC(=O)c1ccc2ccccc2n1` [saquinavir], the “increase in brain penetration” value at P-gp [2] is on record as 10 fold.

`Cc1c(O)cccc1C(=O)N[C@@H](CSc1ccccc1)[C@H](O)CN1C[C@H]2CCCC[C@H]2C[C@H]1C(=O)NC(C)(C)C` [nelfinavir]: on P-gp [2], the “increase in brain penetration” value is recorded as 40 fold. Also, the “increase in the level of the therapeutic agent in the brain” value on P-gp [3] is recorded as 25 fold.
